Paper PMC8876135, “The Catestatin-Derived Peptides Are New Actors to Fight the Development of Oral Candidosis” (International Journal of Molecular Sciences, 2022)
≈ marks a conversion by molar mass, not a printed value. Non-standard residues stand in square brackets, D forms with d. Residues, ends and D or L forms follow the SMILES beside them. *: point of attachment. Palmitoyl = CCCCCCCCCCCCCCCC(=O)*

What was measured:
[1] = test system: Candida albicans “S” (ATCC 10231); assay type: cell-based; conditions: ATCC 10231, 24 h, pH 5.6
Method: (§1) Strains of Candida albicans, Candida tropicalis and Candida glabrata, frequently found in cases of oral candidosis, were tested for L-bCtl and D-bCtl antimicrobial activity. The sensitive strain of C. albicans (ATCC 10231^TM) was provided by ATCC (Manassas, VA, USA). The resistant strain of C. albicans, the sensitive and resistant strains of C. tropicalis as well as the sensitive and resistant strains of C. glabrata were kindly provided by Dr Valérie Letscher-Bru (Laboratory of Parasitolology and Medical Mycology, Strasbourg, France).
(§2) Each Candida strain was first plated on agar plates and cultured for 24 h at 37 °C. After incubation, one colony per isolate was transferred into 5 mL of Sabouraud medium pH 5.6 (Sigma-Aldrich, Le Pont-de-Claix, France) supplemented with tetracycline (10 μg/mL) and cefotaxime (10 μg/mL) and incubated aerobically under agitation at 37 °C for 24 h. The resulting cultures were resuspended at an absorbance of 0.001 (OD600nm = 0.001) in Sabouraud medium. The OD600nm was evaluated with a spectrophotometer (BIO-RAD Smatspec^TM plus, Schiltigheim, France). In preliminary experiments, we tested RPMI-1640 culture and Sabouraud media. Similar data were obtained but the experiments were more reproducible with Sabouraud than with RPMI1640. Therefore, Sabouraud medium was used in the present study.
(§3) The yeasts (OD600nm = 0.001) were then plated on 96-well microplates and treated with different concentrations of the peptides of interest. After 24 h incubation at 37 °C under agitation, yeast growth was assessed by optical density (OD600nm) using a microplate spectrophotometer (Multiscan EX, Thermo Fisher Scientific, Waltham, MA, USA). All tests were performed in triplicate. The MIC (minimal inhibitory concentration), defined as the lowest concentration of drug able to inhibit 100% of the growth of a pathogen, was determined for the different peptides against all previously described Candida strains, using a modified Gompertz model.

[2] = test system: Candida albicans “R”; assay type: cell-based; conditions: 24 h, pH 5.6
Method: as §1, §2, §3

Row | Compound | MIC C. albicans “S” [1] [µg/mL] | MIC C. albicans “R” [2] [µg/mL]
1 | CSCC[C@H](NC(=O)[C@H](CO)NC(=O)[C@H](CO)NC(C)=O)C(=O)N[C@@H](CCCCN)C(=O)N[C@@H](CC(C)C)C(=O)N[C@@H](CO)C(=O)N[C@@H](Cc1ccccc1)C(=O)N[C@@H](CCCNC(=N)N)C(=O)N[C@@H](C)C(=O)N[C@@H](CCCNC(=N)N)C(=O)NCC(=O)N[C@@H](Cc1ccc(O)cc1)C(=O)NCC(=O)N[C@@H](Cc1ccccc1)C(=O)N[C@@H](CCCNC(=N)N)C(=O)O [Peptide P12] (Ac-SSMKLSFRARGYGFR-OH; C-terminus assumed) | >100 | >100
2 | CSCC[C@H](NC(=O)[C@H](CO)NC(=O)[C@@H](N)CO)C(=O)N[C@@H](CCCCN)C(=O)N[C@@H](CC(C)C)C(=O)N[C@@H](CO)C(=O)N[C@@H](Cc1ccccc1)C(=O)N[C@@H](CCCNC(=N)N)C(=O)O [Peptide P14] (H-SSMKLSFR-OH) | >100 | >100
3 | CC(=O)N[C@@H](CC(C)C)C(=O)N[C@@H](CO)C(=O)N[C@@H](Cc1ccccc1)C(=O)N[C@@H](CCCNC(=N)N)C(=O)N[C@@H](C)C(=O)N[C@@H](CCCNC(=N)N)C(=O)O [Peptide P7] (Ac-LSFRAR-OH) | >100 | >100
4 | CC(C)C[C@@H](NC(=O)[C@H](N)CCCNC(=N)N)C(=O)N[C@H](CO)C(=O)N[C@H](Cc1ccccc1)C(=O)N[C@H](CCCNC(=N)N)C(=O)N[C@H](C)C(=O)N[C@H](Cc1c[nH]c2ccccc12)C(=O)O [Peptide P6] (H-[dR][dL][dS][dF][dR][dA][dW]-OH; N-terminus and C-terminus assumed) | >100 | >100
5 | CCCCCCCCCCCCCCCC(=O)N[C@@H](CC(C)C)C(=O)N[C@@H](CO)C(=O)N[C@@H](Cc1ccccc1)C(=O)N[C@@H](CCCNC(=N)N)C(=O)O [Peptide P11] (Palmitoyl-LSFR-OH; C-terminus assumed) | >100 | >100
6 | CC(=O)N[C@@H](CCCCN)C(=O)N[C@@H](CC(C)C)C(=O)N[C@@H](CO)C(=O)N[C@@H](Cc1ccccc1)C(=O)N[C@@H](CCCNC(=N)N)C(=O)N[C@@H](C)C(=O)O [Peptide P17] (Ac-KLSFRA-OH) | >100 | >100
7 | CC(C)C[C@H](N)C(=O)N[C@@H](CO)C(=O)N[C@@H](Cc1ccccc1)C(=O)N[C@@H](CCCNC(=N)N)C(=O)O [Peptide P8] (H-LSFR-OH) | >100 | >100
8 | CSCC[C@H](NC(=O)[C@H](CO)NC(=O)[C@H](CO)NC(C)=O)C(=O)N[C@@H](CCCCN)C(=O)N[C@@H](CC(C)C)C(=O)N[C@@H](CO)C(=O)N[C@@H](Cc1ccccc1)C(=O)N[C@@H](CCCNC(=N)N)C(=O)O [Peptide P15] (Ac-SSMKLSFR-OH) | >100 | >100
9 | CSCC[C@H](NC(=O)[C@H](CO)NC(=O)[C@H](CCCNC(=N)N)NC(C)=O)C(=O)N[C@@H](CCCNC(=N)N)C(=O)N[C@@H](CC(C)C)C(=O)N[C@@H](CO)C(=O)N[C@@H](Cc1ccccc1)C(=O)N[C@@H](CCCNC(=N)N)C(=O)O [Peptide P3] (Ac-RSMRLSFR-OH) | >100 | >100
10 | CSCC[C@H](NC(=O)[C@H](CO)NC(=O)[C@@H](N)CO)C(=O)N[C@@H](CCCCN)C(=O)N[C@@H](CC(C)C)C(=O)N[C@@H](CO)C(=O)N[C@@H](Cc1ccccc1)C(=O)N[C@@H](CCCNC(=N)N)C(=O)N[C@@H](C)C(=O)N[C@@H](CCCNC(=N)N)C(=O)N[C@@H](C)C(=O)N[C@@H](Cc1ccc(O)cc1)C(=O)NCC(=O)N[C@@H](Cc1ccccc1)C(=O)N[C@@H](CCCNC(=N)N)C(=O)O [hCtl] (H-SSMKLSFRARAYGFR-OH) | 50 (≈ 28.1 µM) | 50 (≈ 28.1 µM)
11 | CSCC[C@H](NC(=O)[C@H](CO)NC(=O)[C@@H](N)CCCNC(=N)N)C(=O)N[C@@H](CCCNC(=N)N)C(=O)N[C@@H](CC(C)C)C(=O)N[C@@H](CO)C(=O)N[C@@H](Cc1ccccc1)C(=O)N[C@@H](CCCNC(=N)N)C(=O)O [Peptide P2] (H-RSMRLSFR-OH) | 50 (≈ 47.5 µM) | 100 (≈ 95 µM)
12 | CC(C)C[C@H](NC(=O)[C@@H](N)CCCNC(=N)N)C(=O)N[C@@H](CO)C(=O)N[C@@H](Cc1ccccc1)C(=O)N[C@@H](CCCNC(=N)N)C(=O)N[C@@H](C)C(=O)N[C@@H](Cc1c[nH]c2ccccc12)C(=O)O [Peptide P5] (H-RLSFRAW-OH) | >100 | >100
13 | CCCCCCCCCCCCCCCC(=O)N[C@@H](CCCNC(=N)N)C(=O)N[C@@H](CO)C(=O)N[C@@H](CCSC)C(=O)N[C@@H](CCCNC(=N)N)C(=O)N[C@@H](CC(C)C)C(=O)N[C@@H](CO)C(=O)N[C@@H](Cc1ccccc1)C(=O)N[C@@H](CCCNC(=N)N)C(=O)O [Peptide P4] (Palmitoyl-RSMRLSFR-OH; C-terminus assumed) | >100 | >100
14 | CC(C)C[C@@H](N)C(=O)N[C@H](CO)C(=O)N[C@H](Cc1ccccc1)C(=O)N[C@H](CCCNC(=N)N)C(=O)O [Peptide P9] (H-[dL][dS][dF][dR]-OH; N-terminus and C-terminus assumed) | >100 | >100
15 | CSCC[C@H](N)C(=O)N[C@@H](CCCCN)C(=O)N[C@@H](CC(C)C)C(=O)N[C@@H](CO)C(=O)N[C@@H](Cc1ccccc1)C(=O)N[C@@H](CCCNC(=N)N)C(=O)O [Peptide P18] (H-MKLSFR-OH) | >100 | >100
16 | CCCCCCCCCCCCCCCC(=O)N[C@@H](CO)C(=O)N[C@@H](CO)C(=O)N[C@@H](CCSC)C(=O)N[C@@H](CCCCN)C(=O)N[C@@H](CC(C)C)C(=O)N[C@@H](CO)C(=O)N[C@@H](Cc1ccccc1)C(=O)N[C@@H](CCCNC(=N)N)C(=O)O [Peptide P16] (Palmitoyl-SSMKLSFR-OH; C-terminus assumed) | >100 | >100
17 | CCCCCCCCCCCCCCCC(=O)N[C@@H](CO)C(=O)N[C@@H](CO)C(=O)N[C@@H](CCSC)C(=O)N[C@@H](CCCCN)C(=O)N[C@@H](CC(C)C)C(=O)N[C@@H](CO)C(=O)N[C@@H](Cc1ccccc1)C(=O)N[C@@H](CCCNC(=N)N)C(=O)N[C@@H](C)C(=O)N[C@@H](CCCNC(=N)N)C(=O)NCC(=O)N[C@@H](Cc1ccc(O)cc1)C(=O)NCC(=O)N[C@@H](Cc1ccccc1)C(=O)N[C@@H](CCCNC(=N)N)C(=O)O [Peptide P13] (Palmitoyl-SSMKLSFRARGYGFR-OH; C-terminus assumed) | >100 | >100
18 | CC(=O)N[C@@H](CC(C)C)C(=O)N[C@@H](CO)C(=O)N[C@@H](Cc1ccccc1)C(=O)N[C@@H](CCCNC(=N)N)C(=O)O [Peptide P10] (Ac-LSFR-OH) | >100 | >100
19 | CCCCCCCCCCCCCCCC(=O)N[C@@H](CCSC)C(=O)N[C@@H](CCCCN)C(=O)N[C@@H](CC(C)C)C(=O)N[C@@H](CO)C(=O)N[C@@H](Cc1ccccc1)C(=O)N[C@@H](CCCNC(=N)N)C(=O)O [Peptide P19] (Palmitoyl-MKLSFR-OH; C-terminus assumed) | >100 | >100
